In US20250177412A1, “SMALL-MOLECULE INHIBITORS TARGETING THE BOB1/OCT1 INTERFACE” (NANTES UNIVERSITE, priority 2022, published 2025):

Experiments:
[1] = target: T1, ternary BOB1/POU1/PORE complex (Homo sapiens, UniProt P14859); test: Electrophoretic mobility shift assay (EMSA); type: binding; conditions: 100 μM
T1 construct: made in house; host or cells: E. coli BL21
T1 sequence (P14859 280-438): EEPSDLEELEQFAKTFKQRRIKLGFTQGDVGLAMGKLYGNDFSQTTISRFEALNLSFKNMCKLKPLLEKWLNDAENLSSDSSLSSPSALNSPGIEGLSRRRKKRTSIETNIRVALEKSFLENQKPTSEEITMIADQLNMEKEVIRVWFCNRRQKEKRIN

[2] = tested on: NIH3T3 cells; test: MTT assay; type: cell-based; conditions: data not shown
[3] = tested on: B cells; test: B cell apoptosis by intracellular active caspase-3 staining; type: cell-based; conditions: for percentage of caspase-3 positive B cells: day 7, mean±SD
Procedure: FIG. 5E-F show corresponding summarized data (n=8) for the frequency of caspase-3^+CD38^+/− non-plasmablasts (FIG. 5E) and caspase-3^+CD20^lowCD38^++ plasmablasts (FIG. 5F) at Day 7. […] Error bars are mean±SD. P values were determined with one-way ANOVA with Geisser-Greenhouse's multiple comparisons test.
B cells were stimulated to differentiate into plasmablasts using a two-phase cell culture protocol as previously described. Briefly, B cells were seeded at 4×10^5 cells/mL in 24-well plates and activated during 4 days with 50 ng/mL recombinant human soluble CD40L (R&D Systems), 2.5 μg/mL CpG oligodeoxynucleotide (ODN) 2006 (Amidogen or Cayla Invivogen), 2 μg/mL F(ab′)2 fragment goat anti-human IgA+IgG+IgM (H+L) polyclonal Abs (anti-BCR) (Jackson ImmunoResearch Laboratories), and 50 U/mL human IL-2 (SARL Pharmaxie or Novartis). Day 4-activated B cells were washed and cultured at the same concentration for three additional days in a fresh medium containing 50 U/mL human IL-2, 10 ng/mL human IL-4 (R&D Systems), and 10 ng/mL human IL-10 (R&D Systems) to induce B cell differentiation into plasmablasts. At days 0, 4 and 7, B cells were stained with viability marker LIVE/DEAD Fixable Aqua Dead Cell Stain (Thermofisher) to identify dead cells, followed by extracellular staining with anti-human mAbs: anti-CD20 FITC, anti-IgD BUV395, anti-CD27 BUV737, anti-CD38 BV605 (all from BD Biosciences) and analyzed by flow cytometry (FACSCelesta™, BD Biosciences). In some experiments, B cell apoptosis was evaluated by intracellular active caspase-3 staining (Caspase-3-PE, BD Biosciences).

[4] = tested on: CD4+CD25- T cells; test: Anti-CD3/CD28-induced T-cell proliferation (CPD); type: cell-based; conditions: Homo sapiens, 72 h, 3 days
Procedure: FIGS. 7A-P are a combination of graphs and FACS plots showing that targeting the BOB1-OCT(s) interaction by compound 005 inhibits dose-dependently T-cell proliferation and selectively suppresses memory Th17 responses. Representative offset histogram overlays showing median fluorescence intensity of cell proliferation dye (CPD) in anti-CD3/CD28-activated CD4^+CD25^− T cells cultured without BOB1 inhibitor (DMSO-treated control) or in the presence of 5, 10 or 15 μM compound 005, as indicated (FIG. 7A). The percentage of proliferating cells is indicated for one representative donor. […] FIG. 7C-O show the expression of Th1-(IFNG (FIG. 7C), TNF (FIG. 7D), IL-2 (FIG. 7E) and TBX21 (FIG. 7F)), Th2-(IL-4 (FIG. 7G) and GATA3 (FIG. 7H)), Th17-(IL-17A (FIG. 7I), IL-17F (FIG. 7J), IL-21 (FIG. 7K), IL-22 (FIG. 7L) and RORC (FIG. 7M)), and Treg-(IL-10 (FIG. 7N) and FOXP3 (FIG. 7O)) associated cytokines and transcription factors during recall (memory) T cell responses in vitro. […] Each dot represents a biological replicate. Bars indicate the mean±SD. * P<0.05, ** P<0.01, **** P<0.0001.
Cells were resuspended in PBS and labelled with Cell Proliferation Dye eFluor 450 (CPD) (eBioscience) at a final concentration of 10 μM at 37° C. for 10 min, kept on ice for 5 min, and washed twice with 10 mL of ice-cold RPMI 1640 10% FCS medium.
To confirm and extend the observation that targeting the BOB1-OCT(s) interaction suppresses effector T cell proliferation efficiently, we cultured CD4^+CD25^− T cells in the presence of anti-CD3/CD28 microbeads and different concentrations of compound 005 for 3 days. […] OCT1 is constitutively expressed in T cells, whereas BOB1 is induced only after activation. […] Therefore, we next determined the consequences of inhibition of the OCT1-BOB1 complex on the expression of Th1-, Th2-, and Th17-associated cytokines during primary and secondary (memory) T-cell responses in vitro (FIGS. 7C-O). […]

[5] = tested on: naïve B cells; test: In vitro plasmablast differentiation with naive B cells; type: cell-based, human; conditions: data not shown
Text: Blood samples were obtained from healthy volunteers provided by Sanquin Blood Supply Foundation (Amsterdam, the Netherlands) or from Etablissement Français du Sang (Nantes, France) after written consent was obtained. Peripheral blood mononuclear cells (PBMCs) were isolated through Ficoll-Paque gradient centrifugation on Lymphoprep (Nycomed). Total B cells were isolated from freshly purified PBMCs by negative selection (B cell Isolation Kit II; Miltenyi Biotech, 130-091-151) on magnetic columns using autoMACS Pro Separator according to the manufacturer's instructions. […] Ultimately, purity of the MACS-isolated CD19^+ B cells, CD19^+CD27^+IgD^− memory B cells and CD19^+CD27^−IgD^+ […] was assessed by flow cytometry; purity was >90% for B cells, >65% for memory B cells, and >85% for naive B cells. […]
B cells were stimulated to differentiate into plasmablasts using a two-phase cell culture protocol as previously described. […] At days 0, 4 and 7, B cells were stained with viability marker LIVE/DEAD Fixable Aqua Dead Cell Stain (Thermofisher) to identify dead cells, followed by extracellular staining with anti-human mAbs: anti-CD20 FITC, anti-IgD BUV395, anti-CD27 BUV737, anti-CD38 BV605 (all from BD Biosciences) and analyzed by flow cytometry (FACSCelesta™, BD Biosciences). […]

In the case of `Cc1ccc(NC(=O)C2CN(c3nc(NCCCc4ccc(F)cc4)nc(NCCC(=O)O)n3)c3ccccc3O2)cc1Cl` (centres unmarked) [compound 005, 3-((4-(2-((3-chloro-4-methylphenyl)carbamoyl)-2,3-dihydro-4H-benzo[b][1,4]oxazin-4-yl)-6-((3-(4-fluorophenyl)propyl)amino)-1,3,5-triazin-2-yl)amino)propanoic acid], the “effect on ternary BOB1/POU1/PORE complex” value [1] is reported as “has not affected”, the concentration showing toxicity [2] is reported as no less than 80 µM and the “percentage of caspase-3 positive B cells” value ([3]; 5 μM) is reported as 33.9±15.5%. The “percentage of caspase-3 positive B cells” value ([3]; 10 μM) was 25.6±7.5%, the “percentage of caspase-3 positive B cells” value ([3]; 15 μM) was 30.8±7.9% and the “frequencies of caspase-3 positive cells” value ([3]; activation phase (days 0-4), even at high concentrations) was “did not affect”. For the same compound, the “susceptibility to apoptosis of CD20loCD38hi plasmablast and CD20+CD38+/- non-plasmablast populations” value ([3]; day 7) was “reduced susceptibility to apoptosis”, the inhibition at 5 µM ([4]; 5 μM) was 18.8 ± 12.5% and the inhibition at 10 µM ([4]; 10 μM) was 50.5 ± 10.2%. The inhibition at 15 µM ([4]; 15 μM) was 77.5 ± 9.2% and the “effect on proliferation, CD38 and CD20 expression and plasmablast differentiation” value [5] was “comparable dose-dependent effect”.
